Test results: patent US20150209335A1, “METHODS AND SMALL MOLECULE THERAPEUTICS COMPRISING FUSED ELPS” (UNIVERSITY OF SOUTHERN CALIFORNIA, priority 2012, published 2015)

B1: I48S48: ELP diblock copolymer (Val-Pro-Gly-Ile-Gly)48(Val-Pro-Gly-Ser-Gly)48 (SEQ ID NO: 12), forms nanoparticles (protein)
chain: VPGIGVPGIGVPGIGVPGIGVPGIGVPGIGVPGIGVPGIGVPGIGVPGIGVPGIGVPGIGVPGIGVPGIGVPGIGVPGIGVPGIGVPGIGVPGIGVPGIGVPGIGVPGIGVPGIGVPGIGVPGIGVPGIGVPGIGVPGIGVPGIGVPGIGVPGIGVPGIGVPGIGVPGIGVPGIGVPGIGVPGIGVPGIGVPGIGVPGIGVPGIGVPGIGVPGIGVPGIGVPGIGVPGIGVPGIGVPGIGVPGSGVPGSGVPGSGVPGSGVPGSGVPGSGVPGSGVPGSGVPGSGVPGSGVPGSGVPGSGVPGSGVPGSGVPGSGVPGSGVPGSGVPGSGVPGSGVPGSGVPGSGVPGSGVPGSGVPGSGVPGSGVPGSGVPGSGVPGSGVPGSGVPGSGVPGSGVPGSGVPGSGVPGSGVPGSGVPGSGVPGSGVPGSGVPGSGVPGSGVPGSGVPGSGVPGSGVPGSGVPGSGVPGSGVPGSGVPGSG
B2: F24S24: ELP diblock copolymer (Val-Pro-Gly-Phe-Gly)24(Val-Pro-Gly-Ser-Gly)24 (SEQ ID NO: 13), forms nanoparticles (protein)
chain: VPGFGVPGFGVPGFGVPGFGVPGFGVPGFGVPGFGVPGFGVPGFGVPGFGVPGFGVPGFGVPGFGVPGFGVPGFGVPGFGVPGFGVPGFGVPGFGVPGFGVPGFGVPGFGVPGFGVPGFGVPGSGVPGSGVPGSGVPGSGVPGSGVPGSGVPGSGVPGSGVPGSGVPGSGVPGSGVPGSGVPGSGVPGSGVPGSGVPGSGVPGSGVPGSGVPGSGVPGSGVPGSGVPGSGVPGSGVPGSG

Tests used:
[1] = in vivo; cited from earlier work
[2] = toxicity and body weight in the MDA-MB-468 xenograft mouse study; conditions: after first 2 doses, dosed 3 times a week
Excerpt: 3 times a week. […] Therefore, the dose was reduced to only once a week.

[3] = system: MDA-MB-468 rapamycin sensitive breast cancer cell line; assay: MTS cell viability assay, MDA-MB-468; assay type: cell-based; conditions: MDA-MB-468 cell assay
Protocol: Each mouse was injected with 3×10^6 MDA-MB-468 cells s.c. in mammary fat pads. […] 3 times a week. […] Therefore, the dose was reduced to only once a week.

[4] = system: lymphocytic infiltration of the lacrimal gland; assay: lymphocytic infiltration of the lacrimal gland in male NOD mice (autoimmune dacryoadenitis); assay type: in vivo, mouse; conditions: 12 week old male NOD mice, tail vein, one week of treatment
Excerpt: The bottom panel is image analysis that was used to quantify % of tissue section containing lymphocyte foci. *p=0.003, **P=5×10·5, ***P=0.01, ****P=0.0009.

[5] = system: interferon gamma (IFN gamma); assay: interferon gamma expression in NOD mouse lacrimal gland, real time RT-PCR; assay type: in vivo; conditions: NOD mice, 7-day treatment period
Excerpt: Quantitation was achieved using real time RT-PCR. Expression of IFN-gamma was quantified after a 7-day treatment period with PBS, Free Rapa, and FSI Rapa.

[6] = dynamic light scattering (DLS) size of ELP nanoparticles; assay type: physicochemical; conditions: concentration of 25 uM
Excerpt: ELP diblock copolymers with hydrophobic and hydrophilic guest residues at opposite ends of the polymer (e.g. (Val-Pro-Gly-Ile-Gly) 48(Val-Pro-Gly-Ser-Gly)48 (SEQ ID NO: 12) called I48S48) can form nanoparticles. A class of ELP block copolymers with hydrophobic block:hydrophilic block=1:1 have been confirmed to form different sizes of stable nanoparticles. For instances, (Val-Pro-Gly-Ile-Gly)48(Val-Pro-Gly-Ser-Gly)48 (SEQ ID NO: 12) short name: 148S48; (Val-Pro-Gly- Phe-Gly)24(Val-Pro-Gly-Ser-Gly)24 (SEQ ID NO: 13)) short name F24S24. Dynamic light scattering (DLS) can be applied to measure the size of ELP nanoparticles. At concentration of 25 uM, ELP block copolymer 148S48 forms 24 nm in radius nanoparticles; however, F24S24 forms nanoparticles with 15 nm hydrodynamic radius. In order to actually observe the morphology of ELP nanoparticles, transmission electron microscopy (TEM) and cryo-transmission electron microscopy (Cryo-TEM) can be applied. In TEM, 1% of Uranyl acetate solution is used to negatively stain ELP nanoparticles. Therefore, ELP nanoparticles are expected to be observed as hollow spheres. Different from TEM in which ELP samples are loaded on a grid and dry at room temperature. Cryo-TEM studies ELP samples at cryogenic temperatures, generally liquid nitrogen temperatures. […]

[7] = Rapa encapsulation and release from ELP nanoparticles, dialysis under sink conditions, RP-HPLC; assay type: physicochemical; conditions: preliminary experiments
Protocol: Dialysis under sink conditions was used track the loss of Rapa from the nanoparticles. Mean±SD (n=3).
A two phase method was developed to encapsulate Rapa into the ELP nanoparticles. An aqueous phase PBS containing S48I48 or FKBP-S48I48 was mixed with an organic phase hexane/EtOH containing Rapa in a small glass vial. The vial was kept stirred and heated up to the CMT of S48I48 or FKBP-S48I48. A nitrogen flow was applied to facilitate the evaporation of the hexane/EtOH phase. A 13.2K 10 min centrifugation was performed to remove the insoluble Rapa after the organic phase evaporated out. 100 μL of the sample was filtered and injected into a C-18 reverse phase HPLC column to analyze the amount of the Rapa that was initially encapsulated. Rapa releasing experiment was performed under a sink condition of H2O dialysis. Samples were collected in the dialysis cassette at time points of 0 h, 1 h, 2 h, 4 h, 6 h, 9 h, 19.5 h, 27 h, 31 h and 48 h. RP-HPLC was used to determine the amount of Rapa that was retained inside the ELP nanoparticle core.

Molecule | bioavailability of the plain drug [1] | body weight lost [2] | rapamycin dose (concentration) that could be reached [3] | lymphocytic infiltration (lymphocyte foci) of lacrimal gland [4] | IFN gamma expression in lacrimal gland [5] | nanoparticle hydrodynamic radius [6] [nm] | rapamycin encapsulation into plain ELP nanoparticles [7]
CO[C@H]1C[C@@H]2CC[C@@H](C)[C@@](O)(O2)C(=O)C(=O)N2CCCC[C@H]2C(=O)O[C@H]([C@H](C)C[C@@H]2CC[C@@H](O)[C@H](OC)C2)CC(=O)[C@H](C)/C=C(\C)[C@@H](O)[C@@H](OC)C(=O)[C@H](C)C[C@H](C)/C=C/C=C/C=C/1C [rapamycin, (3S,6R,7E,9R,10R,12R,14S,15E,17E,19E,21S,23S,26R,27R,34aS)-9,10,12,13,14,21,22,23,24,25,26,27,32,33,34,34a-hexadecahydro-9,27-dihydroxy-3-[(1R)-2-[(1S,3R,4R)-4-hydroxy-3-methoxycyclohexyl]-1-methylethyl]-10,21-dimethoxy-6,8,12,14,20,26-hexamethyl-23,27-epoxy-3H-pyrido[2,1-c][1,4]-oxaazacyclohentriacontine-1,5,11,28,29 (4H,6H,31H)-pentone] | less than 20% | about 10% | could not reach such a high rapamycin concentration | less lymphocyte invasion | sizeable reduction |  | 
B1 |  |  |  |  |  | 24 | efficiently encapsulated
B2 |  |  |  |  |  | 15 | efficiently encapsulated
